pEC50: −log10 of the molar value. Like-named read-outs stand apart in the source and are kept apart here.
Experiments:
OR2T11 = target: T1, OR2T11 (Homo sapiens, UniProt Q8NH01); settings: cited from earlier work
T1 sequence (Q8NH01 1-316): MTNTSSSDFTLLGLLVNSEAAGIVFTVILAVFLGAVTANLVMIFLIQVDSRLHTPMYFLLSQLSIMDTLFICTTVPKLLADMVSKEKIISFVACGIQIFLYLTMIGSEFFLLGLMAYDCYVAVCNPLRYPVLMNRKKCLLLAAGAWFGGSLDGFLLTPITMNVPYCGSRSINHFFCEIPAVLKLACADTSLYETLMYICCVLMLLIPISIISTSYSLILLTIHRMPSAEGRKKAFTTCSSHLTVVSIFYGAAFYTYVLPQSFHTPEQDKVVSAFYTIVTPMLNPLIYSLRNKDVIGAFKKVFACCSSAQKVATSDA

consensus OR12D3 = target: T2, consensus OR12D3 (Homo sapiens, UniProt Q9UGF7, A145V/C216Y/C85S/G168H/G17S/G27V/H163R/I149T/M273V/M276I/M298L/M46I/M7V/S165N/S188G/S42A/S70C/S86T/V219I/V48I/V84L/Y177C); assay: Luciferase assay, sulfur compounds; assay type: cell-based; settings: in the presence of a copper ion
T2 construct: expressed in transfected cells; host or cells: HEK293
T2 sequence (Q9UGF7 1-315 M7V/G17S/G27V/S42A/M46I/V48I/S70C/V84L/C85S/S86T/A145V/I149T/H163R/S165N/G168H/Y177C/S188G/C216Y/V219I/M273V/M276I/M298L): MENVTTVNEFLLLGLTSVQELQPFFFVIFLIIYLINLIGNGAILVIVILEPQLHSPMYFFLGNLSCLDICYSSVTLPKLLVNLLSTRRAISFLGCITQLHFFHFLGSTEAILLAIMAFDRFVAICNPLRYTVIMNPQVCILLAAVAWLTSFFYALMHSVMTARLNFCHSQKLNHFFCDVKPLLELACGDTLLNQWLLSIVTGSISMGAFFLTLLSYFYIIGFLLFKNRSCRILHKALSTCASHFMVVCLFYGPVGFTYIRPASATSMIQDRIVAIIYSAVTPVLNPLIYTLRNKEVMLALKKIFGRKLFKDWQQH

consensus OR2T5 = target: T3, consensus OR2T5 (Homo sapiens, UniProt Q6IEZ7, A76M/C55S/F147L/I190K/I217V/K41M/L14S/L223S/L224F/L249M/L87M/M19V/M302T/M75V/R23S/R24Q/R6W/S169T/S32C/S61T/T121A/T189M/V229I/V48I/V96I/W176R); assay: Luciferase assay, sulfur compounds; assay type: cell-based
T3 construct: expressed in transfected cells; host or cells: HEK293
T3 sequence (Q6IEZ7 with tags, fused parts or gaps R6W/L14S/M19V/R23S/R24Q/S32C/K41M/V48I/C55S/S61T/M75V/A76M/L87M/V96I/T121A/F147L/S169T/W176R/T189M/I190K/I217V/L223S/L224F/V229I/L249M/M302T): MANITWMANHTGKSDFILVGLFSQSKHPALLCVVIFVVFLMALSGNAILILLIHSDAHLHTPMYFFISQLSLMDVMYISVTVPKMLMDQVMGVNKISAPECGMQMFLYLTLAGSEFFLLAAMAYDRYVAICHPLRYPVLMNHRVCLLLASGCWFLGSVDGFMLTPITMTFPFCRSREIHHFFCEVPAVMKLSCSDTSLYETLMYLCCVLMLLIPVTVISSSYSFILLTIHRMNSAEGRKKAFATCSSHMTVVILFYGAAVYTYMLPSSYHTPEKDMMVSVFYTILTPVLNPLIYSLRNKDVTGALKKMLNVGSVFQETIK

consensus OR4C15 = target: T4, consensus OR4C15 (Homo sapiens, UniProt Q8NGM1, A218G/A270V/E23K/G63A/I200A/I247V/I275T/L152F/L222F/L266F/M197L/N174D/N209I/N278T/Q295N/R137W/R299K/T258A/T88R/V55G/V87E/W233R); assay: Luciferase assay, sulfur compounds; assay type: cell-based
T4 construct: Flag (N); Rho tag (N); expressed in transfected cells; host or cells: HEK293

[1] = Block E et al., Nat. Prod. Rep. 2017
[2] = in the presence of a copper ion

T4 sequence (Q8NGM1 1-311 with the stated changes limits assumed): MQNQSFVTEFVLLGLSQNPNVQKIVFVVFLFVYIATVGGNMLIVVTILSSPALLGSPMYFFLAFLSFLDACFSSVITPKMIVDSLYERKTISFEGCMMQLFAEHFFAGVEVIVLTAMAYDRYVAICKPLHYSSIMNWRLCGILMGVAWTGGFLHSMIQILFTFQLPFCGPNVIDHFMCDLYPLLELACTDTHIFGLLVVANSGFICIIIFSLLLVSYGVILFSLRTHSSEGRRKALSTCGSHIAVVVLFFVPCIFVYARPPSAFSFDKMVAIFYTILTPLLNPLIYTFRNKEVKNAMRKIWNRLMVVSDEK

Row | SMILES | response of OR2T11 (OR2T11; [1]) | response of consensus OR12D3 (consensus OR12D3) | response of consensus OR2T5 (consensus OR2T5; [2]) | pEC50 (consensus OR4C15) | dose dependence of the response of consensus OR4C15 (consensus OR4C15; [2]) | response of consensus OR4C15 (consensus OR4C15; [2]) | response of OR2T11 (OR2T11; in the presence of a metal ion (JP-B-6122181)) | EC50 (consensus OR2T5; consensus OR2T5, 30 μM CuCl2) [µM] | dose dependence of the response of consensus OR2T5 (consensus OR2T5; [2])
1 | CSSC [dimethyl disulfide] | responds | responded | responded | 3.21 | dose-dependent response | responded |  |  | 
2 | CSSSC [dimethyl trisulfide] |  | responded |  |  |  | responded |  |  | 
3 | CS [methyl mercaptan] | responds | responded | responded |  |  | responded | respond | 217 | dose-dependent response
